# What was measured:
# [1] = test system: Colo320 human rectal cancer cells; assay: CCK-8 proliferation inhibition, Colo320; assay type: cell-based; details: CCK-8 method; for inhibition at 10 µM / inhibition at 100 µM: Homo sapiens, COLO 320
# Description: (§1) Detecting the inhibition rate of the compound concentrations of 100 μM and 10 μM to Hut78 T-cell Leukemia cell, Jurkat E6-1 human T-cell lymphoma, PANC-1 human pancreatic cancer cells, A549 human lung cancer cells, K562 human chronic myeloid leukemia cells, Hep3B2.1-7 human liver cancer cells, MDA-MB-435s human breast cancer cells, Colo320 human rectal cancer cells and PC-3 human prostate cancer using CCK-8 method.
# [2] = test system: Hep3B2.1-7 human liver cancer cells; assay: CCK-8 proliferation inhibition, Hep3B2.1-7; assay type: cell-based; details: CCK-8 method; for inhibition at 10 µM / inhibition at 100 µM: Homo sapiens, Hep3B
# Description: as §1
# [3] = test system: A549 human lung cancer cells; assay: CCK-8 proliferation inhibition, A549; assay type: cell-based; details: CCK-8 method; for inhibition at 10 µM / inhibition at 100 µM: Homo sapiens, A549
# Description: as §1
# [4] = test system: Hut78 T-cell Leukemia cell; assay: CCK-8 proliferation inhibition, Hut78; assay type: cell-based; details: for inhibition at 10 µM / inhibition at 100 µM: Homo sapiens, read-out: Hut-78 (inhibition %); for inhibition at 10 µM: HuT78, 10 μM; for inhibition at 100 µM: HuT78, 100 μM
# Description: as §1
# [5] = test system: Jurkat E6-1 human T-cell lymphoma; assay: CCK-8 proliferation inhibition, Jurkat E6-1; assay type: cell-based; details: for inhibition at 10 µM / inhibition at 100 µM: Homo sapiens; for inhibition at 10 µM: Jurkat E6.1, 10 μM; for inhibition at 100 µM: Jurkat E6.1, 100 μM
# Description: as §1
# [6] = test system: MDA-MB-435s human breast cancer cells; assay: CCK-8 proliferation inhibition, MDA-MB-435s; assay type: cell-based; details: CCK-8 method; for inhibition at 10 µM / inhibition at 100 µM: Homo sapiens, MDA-MB-435S
# Description: as §1
# histone deacetylase = assay: in vitro inhibition of histone deacetylase by HDAC inhibitor screening kit (Biovision K340-100); assay type: biochemical
# Description: An assay for determining the in vitro inhibition activity of the compound on histone deacetylase is conducted according to the specification of HDAC inhibitor screeing kid (Biovision Company/Catalog #K340-100). […]
# [7] = test system: PC-3 human prostate cancer; assay: CCK-8 proliferation inhibition, PC-3; assay type: cell-based; details: CCK-8 method; for inhibition at 10 µM / inhibition at 100 µM: Homo sapiens
# Description: as §1
# [8] = test system: K562 human chronic myeloid leukemia cells; assay: CCK-8 proliferation inhibition, K562; assay type: cell-based; details: for inhibition at 10 µM / inhibition at 100 µM: Homo sapiens; for inhibition at 10 µM: K562, 10 μM; for inhibition at 100 µM: K562, 100 μM
# Description: as §1
# [9] = test system: PANC-1 human pancreatic cancer cells; assay: CCK-8 proliferation inhibition, PANC-1; assay type: cell-based; details: for inhibition at 10 µM / inhibition at 100 µM: Homo sapiens; for inhibition at 10 µM: PANC-1, 10 μM; for inhibition at 100 µM: PANC-1, 100 μM
# Description: as §1
Structure (SMILES),Inhibition rate(%) (histone deacetylase; 3.91 μM),Inhibition rate(%) (histone deacetylase; 62.5 μM),Inhibition rate(%) (histone deacetylase; 2 mM),inhibition at 10 µM ([1]; compound concentration 10 μM),inhibition at 100 µM ([1]; compound concentration 100 μM),inhibition at 10 µM ([2]; compound concentration 10 μM),inhibition at 100 µM ([2]; compound concentration 100 μM),inhibition at 10 µM ([3]; compound concentration 10 μM),inhibition at 100 µM ([3]; compound concentration 100 μM),inhibition at 10 µM [4],inhibition at 100 µM [4],inhibition at 10 µM [5],inhibition at 100 µM [5],inhibition at 10 µM ([6]; compound concentration 10 μM),inhibition at 100 µM ([6]; compound concentration 100 μM),inhibition at 10 µM ([7]; compound concentration 10 μM),inhibition at 100 µM ([7]; compound concentration 100 μM),inhibition at 10 µM [8],inhibition at 100 µM [8],inhibition at 10 µM [9],also measured
"COc1cc(COC(=O)NCc2ccc(C(=O)Nc3cccnc3N)cc2)cc(OC)c1OC [V-13, N-(2-amino-3-pyridyl)-4-[(3,4,5-trimethoxybenzyloxyacyl)aminomethyl]benzamide]",1.9%,7.8%,50.0%,4.4%,4.2%,27%,26.2%,24.6%,42.3%,10.8%,24%,0.9%,22.8%,-11.9%,11.8%,5.1%,19.3%,-2.8%,30.3%,22.3%,inhibition at 100 µM [9]: 26.4%
COc1cc(COC(=O)NCc2ccc(C(=O)Nc3ccncc3N)cc2)cc(OC)c1OC [V-14],12.0%,32.9%,77.2%,6.4%,23.3%,3.7%,31.3%,-4.4%,40.1%,8.1%,47.5%,25.3%,72.8%,9.4%,82.9%,13.7%,57.4%,45%,62.1%,13%,inhibition at 100 µM [9]: 19%
Nc1cnccc1NC(=O)c1ccc(CNC(=O)/C=C/c2ccccc2)cc1 [V-26],24.8%,56.8%,58.6%,7.7%,56.3%,13.8%,75.1%,9.5%,79.1%,39.9%,82.3%,76.6%,95.7%,22.7%,81.4%,45.2%,72.2%,58.5%,87.5%,0.9%,inhibition at 100 µM [9]: 23.9%
Nc1cnccc1NC(=O)c1ccc(CNC(=O)/C=C/c2ccc([N+](=O)[O-])cc2)cc1 [V-38],24.2%,55.2%,76.1%,-0.2%,44.4%,11.7%,63.5%,4.2%,63.7%,39.6%,86.9%,76.9%,95.1%,16.6%,73.6%,8.7%,52.6%,54%,88.2%,5.1%,inhibition at 100 µM [9]: 40.8%
"Nc1ncccc1NC(=O)c1ccc(CNC(=O)/C=C/c2cccnc2)cc1 [V-42, N-(2-amino-3-pyridyl)-4-[(3-pyridylacryloyl)aminomethyl]benzamide]",11.4%,40.2%,82.4%,26.3%,77%,21.2%,58.8%,56.3%,88.8%,28.2%,55.8%,62.4%,93.7%,24.2%,89.2%,81.4%,89.4%,27.9%,67.7%,20.8%,inhibition at 100 µM [9]: 50.6%
COc1cccc(/C=C/C(=O)NCc2ccc(C(=O)Nc3ccncc3N)cc2)c1 [V-92],24.0%,56.1%,65.7%,6%,65.5%,20.2%,80.5%,2.2%,54.2%,46.2%,78.5%,87.5%,95.5%,23.7%,77.7%,41%,73.8%,68.7%,91.1%,6.3%,inhibition at 100 µM [9]: 33.3%

# Second part, led by results:
Inhibition rate(%) (histone deacetylase; 3.91 μM),Inhibition rate(%) (histone deacetylase; 62.5 μM),Inhibition rate(%) (histone deacetylase; 2 mM),Structure (SMILES),inhibition at 10 µM ([1]; compound concentration 10 μM),inhibition at 100 µM ([1]; compound concentration 100 μM),inhibition at 10 µM ([2]; compound concentration 10 μM),inhibition at 100 µM ([2]; compound concentration 100 μM),inhibition at 10 µM ([3]; compound concentration 10 μM),inhibition at 100 µM ([3]; compound concentration 100 μM),inhibition at 10 µM [4],inhibition at 100 µM [4],inhibition at 10 µM [5],inhibition at 100 µM [5],inhibition at 10 µM ([6]; compound concentration 10 μM),inhibition at 100 µM ([6]; compound concentration 100 μM),inhibition at 10 µM ([7]; compound concentration 10 μM),inhibition at 100 µM ([7]; compound concentration 100 μM),inhibition at 10 µM [8],inhibition at 100 µM [8],inhibition at 10 µM [9],also measured
30.4%,56.8%,66.0%,Cc1ccc(/C=C/C(=O)NCc2ccc(C(=O)Nc3ccncc3N)cc2)cc1 [V-28],6.5%,58.8%,23.5%,60%,17.1%,96.4%,44.4%,85.7%,84.8%,89.4%,25.2%,88.8%,48.1%,75.5%,64.3%,92.9%,-1.7%,inhibition at 100 µM [9]: 52%
28.2%,56.9%,67.5%,COc1ccc(/C=C/C(=O)NCc2ccc(C(=O)Nc3ccncc3N)cc2)cc1 [V-30],5.4%,40.8%,38.3%,69.2%,21.8%,69.9%,42.3%,71.8%,83.1%,88.2%,18%,81.4%,44.6%,69%,60.9%,83.4%,12.3%,inhibition at 100 µM [9]: 39.4%
2.2%,3.1%,42.5%,"COc1cc(CCC(=O)NCc2ccc(C(=O)Nc3cccnc3N)cc2)cc(OC)c1OC [V-54, N-(2-amino-3-pyridyl)-4-[3-(3,4,5-methoxyphenyl)propionylaminomethyl]benzamide]",,,,,,,,,,,,,,,,,,Colo320 (inhibition %) ([1]; compound concentration 10 μM): 6.8%; Colo320 (inhibition %) ([1]; compound concentration 100 μM): 2.7%; Hep3B (inhibition %) ([2]; compound concentration 10 μM): 4.2%; Hep3B (inhibition %) ([2]; compound concentration 100 μM): 4.7%; A549 (inhibition %) ([3]; compound concentration 10 μM): 7.5%; A549 (inhibition %) ([3]; compound concentration 100 μM): 12.8%; Hut-78 (inhibition %) ([4]; 10 μM): 0.9%; Hut-78 (inhibition %) ([4]; 100 μM): 10.6%; Jurkat E6-1 (inhibition %) ([5]; 10 μM): 2.9%; Jurkat E6-1 (inhibition %) ([5]; 100 μM): 5.8%; 435s(inhibition %) ([6]; compound concentration 10 μM): 14.6%; 435s(inhibition %) ([6]; compound concentration 100 μM): 14.0%; PC-3 (inhibition %) ([7]; compound concentration 10 μM): 5.6%; PC-3 (inhibition %) ([7]; compound concentration 100 μM): 5.9%; K562 (inhibition %) ([8]; 10 μM): 12.7%; K562 (inhibition %) ([8]; 100 μM): 13.1%; PANC-1 (inhibition %) ([9]; 10 μM): 15.6%; PANC-1 (inhibition %) ([9]; 100 μM): 11.7%
10.1%,47.8%,81.8%,"COc1cccc(/C=C/C(=O)NCc2ccc(C(=O)Nc3cccnc3N)cc2)c1 [V-91, N-(2-amino-3-pyridyl)-4-[(3-methoxycinnamoyl)aminomethyl]benzamide]",9.6%,27.6%,7.8%,63.6%,17.7%,48.9%,26.8%,68.3%,23.7%,89.9%,25.9%,71.2%,7.9%,24.2%,37.4%,81.6%,2.4%,inhibition at 100 µM [9]: 8.5%

# Source: patent US8889876B2, “Histone deacetylase inhibitors and uses thereof” (Jiangsu Hengyi Pharmaceutical Co., Ltd., priority 2008, dated 2014)
